Reference: article PMC12516390 (ACS Medicinal Chemistry Letters, 2025)
Where two headings read alike, the source gives them in different places.

Tested on: SARS-CoV-2 (Omicron variant)
Experiment: microbe, parasite or virus in culture
Assay type: cell-based
[1] = Severe acute respiratory syndrome coronavirus 2, Vero C1008, read-out: EC50 / activity in SARS-CoV-2 VeroE6 antiviral assay
[2] = Severe acute respiratory syndrome coronavirus 2, read-out: EC50 (μM) SARS-CoV-2/VeroE6-GFP
[3] = Severe acute respiratory syndrome coronavirus 2, read-out: EC50 (μM) SARS-CoV-2 / VeroE6-GFP

Question: With `COc1ccc(-c2ccc(C(=O)N3C[C@H]4[C@@H]([C@H]3C(=O)N[C@H](C#N)C[C@@H]3CCNC3=O)C4(C)C)c(Cl)c2)cc1` [22e] as the molecule, how does the EC50 [1] read?
Answer: Its EC50 is 0.2 to 0.3 µM.

Question: And the EC50 [2]?
Answer: Its EC50 is 0.289 ± 0.05 µM.

Question: For `CC(C)C[C@H](NC(=O)c1ccc(-c2cccc3nn(C)cc23)cc1)C(=O)N[C@H](C#N)C[C@@H]1CCNC1=O` [6j], which EC50 [2] is on record?
Answer: The EC50 was 12.1 ± 0.5 µM.

Question: With `CC(C)C[C@H](NC(=O)c1ccc(-c2ccc3cnn(C)c3c2)cc1Cl)C(=O)N[C@H](C#N)C[C@@H]1CCNC1=O` [18q] as the molecule, how does the EC50 [3] read?
Answer: Its EC50 is 3.02 µM.

Question: Which EC50 [3] does the source give for `CC(C)C[C@H](NC(=O)c1ccc(-c2cccc3nn(C)cc23)cc1F)C(=O)N[C@H](C#N)C[C@@H]1CCNC1=O` [18a] here?
Answer: The EC50 was 4.18 µM.

Question: How did the EC50 [3] turn out when `COc1ccc(-c2ccc(C(=O)N[C@@H](CC(C)C)C(=O)N[C@H](C#N)C[C@@H]3CCNC3=O)c(F)c2)cc1` [18b] was run?
Answer: Its EC50 is 5.67 µM.

Question: Which EC50 [3] does the source give for `COc1ccc(-c2ccc(C(=O)N[C@@H](CC(C)C)C(=O)N[C@H](C#N)C[C@@H]3CCNC3=O)c(C)c2)cc1` [18k] here?
Answer: Its EC50 is 5.16 µM.

Question: Which EC50 [2] does the source give for `CC(C)C[C@H](NC(=O)c1ccc(-c2ccc3c(cnn3C)c2)cc1)C(=O)N[C@H](C#N)C[C@@H]1CCNC1=O` [6l] here?
Answer: The EC50 was 11.1 ± 0.3 µM.

Question: How did the EC50 [1] turn out when `COc1cccc(-c2ccc(C(=O)N3C[C@H]4[C@@H]([C@H]3C(=O)N[C@H](C#N)C[C@@H]3CCNC3=O)C4(C)C)c(Cl)c2)c1` [22f] was run?
Answer: Its EC50 is 0.2 to 0.3 µM.

Question: What about the EC50 [2] of the same molecule?
Answer: The EC50 was 0.331 ± 0.05 µM.

Question: With `CC(C)(C)[C@H](NC(=O)C(F)(F)F)C(=O)N1C[C@H]2[C@@H]([C@H]1C(=O)N[C@H](C#N)C[C@@H]1CCNC1=O)C2(C)C` [nirmatrelvir, reference compound] as the molecule, how does the EC50 [1] read?
Answer: Its EC50 is 0.1 to 0.18 µM.

Question: And the EC50 [2]?
Answer: Its EC50 is 0.101 ± 0.2 µM.

Question: `COc1ccc(-c2ccc(C(=O)N[C@@H](CC(C)C)C(=O)N[C@H](C#N)C[C@@H]3CCNC3=O)c(Cl)c2)cc1` [18r] was tested. Which EC50 [3] did it give?
Answer: The EC50 was 1.57 µM.

Question: For `COc1ccc(-c2ccc(C(=O)N[C@@H](CC3CCCCC3)C(=O)N[C@H](C#N)C[C@@H]3CCNC3=O)c(Cl)c2)cc1` [23c], which EC50 [2] is on record?
Answer: The EC50 was 2.49 ± 0.2 µM.

Question: `COc1cccc(-c2ccc(C(=O)N[C@@H](CC(C)C)C(=O)N[C@H](C#N)C[C@@H]3CCNC3=O)c(Cl)c2)c1` [18n] was tested. Which EC50 [3] did it give?
Answer: Its EC50 is 2.18 µM.

Question: What about the EC50 [2] of the same molecule?
Answer: The EC50 was 2.18 ± 0.2 µM.

Question: With `COc1cccc(-c2ccc(C(=O)N[C@@H](CC(C)C)C(=O)N[C@H](C#N)C[C@@H]3CCNC3=O)cc2)c1` [6e] as the molecule, how does the EC50 [2] read?
Answer: Its EC50 is 12.5 ± 0.5 µM.

Question: How did the EC50 [3] turn out when `COc1ccc(-c2ccc(C(=O)N[C@@H](CC(C)C)C(=O)N[C@H](C#N)C[C@@H]3CCNC3=O)c(C(F)(F)F)c2)cc1` [18m] was run?
Answer: The EC50 was 2.56 µM.

Question: `COc1ccc(-c2ccc(C(=O)N[C@@H](CC(C)C)C(=O)N[C@H](C#N)C[C@@H]3CCNC3=O)cc2)cc1OC` [6f] was tested. Which EC50 [2] did it give?
Answer: Its EC50 is 11.9 ± 0.1 µM.

Question: For `COc1cccc(-c2ccc(C(=O)N[C@@H](CC3CCCCC3)C(=O)N[C@H](C#N)C[C@@H]3CCNC3=O)c(Cl)c2)c1` [23d], which EC50 [2] is on record?
Answer: Its EC50 is 8.64 ± 0.3 µM.

Question: Which EC50 [3] does the source give for `CC(C)C[C@H](NC(=O)c1ccc(-c2ccc3c(cnn3C)c2)cc1Cl)C(=O)N[C@H](C#N)C[C@@H]1CCNC1=O` [18o] here?
Answer: The EC50 was 4.25 µM.

Question: Which EC50 [3] does the source give for `CC(C)C[C@H](NC(=O)c1ccc(-c2ccc3c(cnn3C)c2)cc1F)C(=O)N[C@H](C#N)C[C@@H]1CCNC1=O` [18c] here?
Answer: The EC50 was 6.34 µM.

Question: `CC(C)C[C@H](NC(=O)c1ccc(-c2cccc3nn(C)cc23)cc1Cl)C(=O)N[C@H](C#N)C[C@@H]1CCNC1=O` [18p] was tested. Which EC50 [3] did it give?
Answer: The EC50 was 11.8 µM.
